Results on one compound are retold here after patent publication US20060194814A1, “Benzamide compounds” (priority 2003, published 2006).

One assay relates to HMG-CoA reductase. Kind of assay: HMG-CoA reductase activity in procaine-treated Y1 cells. Further details: percent inhibition of HMG-CoA reductase activity: unit of the concentration uncertain. In kind it is cell-based, mouse. The method, then:
Cells were washed twice with ice-cold PBS and incubated with ice-cold assay buffer (0.1M sucrose, 40 mM KH2PO4, 30 mM EDTA, 50 mM KCl, 5 mM DTT, 0.25% (v/v) of Brij 96, at pH 7.4) on ice for 20 minutes. After centrifugation for 3 minutes at 14000 g (4° C.) the supernatants were collected and used for HMG-CoA reductase activity assay. […] The reaction was started by adding substrate (^14C-HMG-CoA, 0.1 Ci) and stopped after 45 minutes by adding 10-1 of HCl 6M. ^3H-mevalonolactone was also added to the samples as an extraction recovery marker. After an additional 30 minutes incubation time, to allow complete lactonization of the product, the mixture was centrifuged.

A further assay concerns Y1 cells. Kind of assay: dbcAMP and mevalonate-supported 20á-hydroxyprogesterone formation in Y1 cells. In kind it is cell-based, mouse. Further details: dose or concentration left out as unconfirmed. As to conditions: procaine. The method, then:
(§1) Culture media were then changed and cells were stimulated with 1 mM dbcAMP and the treatment for 24 to 48 hours. […] The synthesis of 20 —OH progesterone and progesterone in Y1 and MA-10 cell media respectively were measured by RIA (Brown et al., 1992). H295R human adrenal tumor cells were seeded in 48-well plates at 10^5 cells/well and incubated for 24 hours. […] At the end of the incubation time period, cells were treated with 1 mM dbcAMP for 48 hours. Cortisol levels in the media were determined by radioimmunoassay as previously described (Amri et al., 1996).

In assay [1] the test system is multi-drug resistant HIV MDR-769 strain. Kind of assay: HIV MDR 769 strain replication in HeLa cells, without pre-medication. In kind it is cell-based.
Assay [2] concerns steroidogenesis acute regulatory protein (StAR). Kind of assay: Immunoblot of StAR protein in Y1 cells. It counts as cell-based, mouse. Conditions: 1 μM procaine, 48 hour treatment. Here is the method:
At the end of the treatment protocol described above, Y1 cells at 90% confluency were washed 2 times with PBS, sonicated 15 seconds in extraction buffer and centrifuged at 18,500 g for 15 minutes at 4° C. Pellets were resuspended in ice-cold lysis buffer (1% Nonidet 40 in extraction buffer), sonicated briefly, and incubated on ice for 1 hour. After centrifugation (22,500 g×30 min, 4° C.), the supernatant was mixed in sample buffer 6× (0.27 M SDS, 0.6 M dithiothreitol, 0.18 M bromphenol blue in 7 ml of 0.5 M Tris-HCl, pH 6.8, and 3 ml glycerol) and boiled for 5 minutes. Proteins were subjected to SDS-PAGE (4-20% gradient SDS polyacrylamide gel) and electrophoretically transferred onto nitrocellulose membranes. The transblot sheets were blocked with 5% non fat dry milk in 25 mM Tris HCl, pH 7.5, 150 mM NaCl, and 0.1% Tween 20 overnight at 4° C. Membranes were then incubated with appropriately diluted primary antibodies 1:800 for anti-P-450scc (Research Diagnostics Inc. Flanders, N.J.) and 1:200 for anti-StAR (Amri et al., 1996), and the reaction was detected by a peroxidase-conjugated secondary antibody (Santa Cruz Biotechnology, Santa Cruz, Calif.) and enhanced chemiluminescence (Amersham Life, Arlington Heights, Ill.). The densities of the appropriate bands were determined using the OptiQuant Acquisition & Analysis software (Packard BioScience).
In general terms: A western blot detects proteins with antibodies after separation by electrophoresis.

Assay [3] relates to H295R human adrenal tumor cells. Kind of assay: dbcAMP-induced cortisol synthesis in H295R cells. In kind it is cell-based. The method, then: as §1
The next assay has as its system HIV-1 IIIB strain. The experiment in a line: HIV-1 IIIB replication in HeLa cells, 48 hours pre-medication. It counts as cell-based. As to conditions: 48 hours pretreatment; all concentrations tested.
A further assay concerns HMG-CoA reductase mRNA. Kind of assay: HMG-CoA reductase mRNA expression by Q-PCR in Y1 cells. In kind it is cell-based, mouse. The method, then: After treatment, cells were stimulated with 1 mM dbcAMP for 24 hours. At the end of the incubation, total cell RNA was extracted using RNA STAT-60 (Tel-Test Inc, Friendswood, Tex.) according to the manufacturer's instructions. HMG-CoA reductase mRNA was quantified by Q-PCR using the ABI Prism 7700 sequence detection system (Perkin-Elmer/Applied Biosystems, Foster City, Calif.). RT reaction was performed using TaqMan® Reverse Transcription Reagents with 1 g total RNA and random hexamers as primers for each reaction according to the manufacturer's instructions. For quantifying mouse HMG-CoA reductase mRNA with Q-PCR, the primers were designed according to GenBank Accession Number BC 019782 using PE/AB Primer Express software, which is specifically designed for the selection of primers and probes. The forward primer was 5′-[…]-3′ (22 nucleotides; SEQ ID NO:1) and reverse primer was 5′-[…]-3′ (23 nucleotides; SEQ ID NO:2), respectively. The primers were synthesized by Bio-Synthesis Inc. (Lewisville, Tex.). Reactions were performed in a reaction mixture consisting of a 20 l volume solution containing 10 l SYBR® Green PCR Master Mix and 1 l primers mix (5 M each) with 2 l cDNA.

Assay [4] concerns the target T1, peripheral-type benzodiazepine receptor (PBR) (Mus musculus, UniProt P50637).
T1 construct: endogenous in cells; Y1 inferred from context
Kind of assay: PBR radioligand binding ([3H]PK 11195) in procaine-treated cells. Conditions: 1 μM procaine, 48 hour treatment; radioligand [3H]PK 11195. The method, then: Radioligand binding assays were performed as previously described (Papadopoulos et al., 1990, J. Biol. Chem. 265, 3772-3779). In brief, cells were scrapped from culture flasks into PBS, dispersed by trituration, and centrifuged at 1200×g for 5 min. The cells were resuspended in PBS to a final concentration of 10-50 μg protein/100 μl. Saturation binding studies were performed in a final volume of 300 μl in the presence of the radioligand [^3H]PK 11195 (specific activity 83.5 Ci/mmol; NEN Life Science Products) at the indicated concentrations. Nonspecific binding was determined in the presence of 6 μM of the homologous non-radioactive ligand. After 180 min incubation at 4° C., the assays were stopped by filtration through Whatman GF/C filters (Clifton, N.J.) and washed with 10 ml PBS. Bound radioactivity was determined by liquid scintillation counting. Bound [^3H]PK 11195 and [^3H]cholesterol were quantified by liquid scintillation spectrometry. Dissociation constants (Kd), the number of binding sites (Bmax) and Hill coefficients (nH) for PK 11195 and cholesterol were determined by Curve-Fit (Prism version 3.0, GraphPad Software Inc., San Diego, Calif.).

Assay [5] deals with MA-10 mouse Leydig tumor cells. Kind of assay: dbcAMP-induced progesterone synthesis in MA-10 cells. In kind it is cell-based. Here is the method: as §1

Each structure is given as a SMILES string. Where a name gives a salt, the structure may show the parent alone. Read-outs that look alike come from different tables or passages of the source.

In the case of `CCN(CC)CCOC(=O)c1ccc(N)cc1` [SP01, procaine HCl], the entries for the “percent inhibition of HMG-CoA reductase activity” value in the assay on HMG-CoA reductase (concentration 1 (unit uncertain)), in the assay on HMG-CoA reductase (concentration 10 (unit uncertain)) and in the assay on HMG-CoA reductase (concentration 100 (unit uncertain)) were 44%, 72% and 70, respectively. For the same compound, the “concentration giving maximal inhibition of HMG-CoA reductase activity” value in the assay with HMG-CoA reductase (dbcAMP stimulated) turned out to be 10 µM. In addition, the “effect on dbcAMP and mevalonate-supported 20á-hydroxyprogesterone formation” value with Y1 cells was “did not inhibit”. The entries for the “effect on HIV MDR 769 strain replication” value in assay [1] and in assay [1] (concentrations higher than 1 nM) were “effectively blocked” and “not effective”, respectively. Also, the “inhibition of HIV MDR 769 viral replication” value in assay [1] (concentrations up to 1 nM) is reported as 75%. The “effect on levels of the mature 30 kDa StAR protein” value in assay [2] was “did not affect”. The “effect on dbcAMP-stimulated cortisol production” value in [3] is recorded as “inhibited the dbcAMP-stimulated cortisol production in a dose-dependent manner”. The “effect on basal cortisol production” value in assay [3] (basal) was “without effecting basal cortisol production”. Further, the “inhibition of HIV replication” value in the assay with HIV-1 IIIB strain is recorded as 75%. For the same compound, the “effect on dbcAMP-induced HMG-CoA reductase mRNA levels” value in the assay on HMG-CoA reductase mRNA (pretreatment for 24 hours) was “reduced in a dose-dependent manner”. The “earliest treatment time inhibiting dbcAMP-induced HMG-CoA reductase mRNA expression” value in the assay with HMG-CoA reductase mRNA (time-course) came to 6 h. In addition, in assay [4], the “Bmax of PBR ligand binding in procaine-treated cells” value stood at 29±4 pmol/mg protein. For the same compound, the “effect on dbcAMP-induced progesterone synthesis” value in assay [5] is “did not affect”.
